From US6653258B1 (priority 1987, dated 2003)

Tests used:
[1] = system: foliar fungal diseases of plants; assay type: in vivo; set-up: key to disease control grading, […] (VINE): 4: no disease; 3: trace −5% of disease on untreated plants; key to disease control grading, PUCCINIA RECONDITA (WHEAT) / disease control grading, VENTURIA INAEQUALIS (APPLE) / disease control grading, CERCOSPORA ARACHIDICOLA (PEANUT) / disease control grading, PH[…] (TOMATO) / disease control grading, P[…] (RICE): 4: no disease; 3: trace −5% of disease on untreated plants; 6-25% of disease on untreated plants; 1: 26-59% of disease on untreated plants; 60-100% of disease on untreated plants; settings: applied to soil (roots) and foliage one or two days before inoculation; for disease control grading, CERCOSPORA ARACHIDICOLA (PEANUT): Cercospora arachidicola on peanut; for disease control grading, P[…] (RICE): P[…] on rice; for disease control grading, PH[…] (TOMATO): Ph[…] on tomato; for disease control grading, PUCCINIA RECONDITA (WHEAT): Puccinia recondita on wheat; for disease control grading, VENTURIA INAEQUALIS (APPLE): Venturia inaequalis on apple; for disease control grading, […] (VINE): […] on vine
Erysiphe graminis = experiment: Foliar fungal disease test on Erysiphe graminis, plants inoculated 24 hours before treatment (Table V); assay type: in vivo; set-up: key: 4: no disease; 3: trace −5% of disease on untreated plants; 6-25% of disease on untreated plants; 1: 26-59% of disease on untreated plants; 60-100% of disease on untreated plants; settings: plants inoculated 24 hours before treatment

Row | SMILES | disease control grading, CERCOSPORA ARACHIDICOLA (PEANUT) [1] | disease control grading, P[…] (RICE) [1] | disease control grading, PH[…] (TOMATO) [1] | disease control grading, PUCCINIA RECONDITA (WHEAT) [1] | disease control grading, VENTURIA INAEQUALIS (APPLE) [1] | disease control grading, […] (VINE) [1] | disease control grading, ERYSIPHE GRAMINIS (BARLEY) (Erysiphe graminis)
1 | CO/C=C(/C(=O)OC)c1ccccc1COc1cccc(F)c1 [155 (Table I)] | 4 | 4 | 4 | 4 | 4 | 4 | 4
2 | CCc1ccccc1OCc1ccccc1/C(=C\OC)C(=O)OC [27 (Table I)] | 4 | 1 (26-59% of disease on untreated plants) | 4 | 4 | 4 | 0 (60-100% of disease on untreated plants) | 4
3 | CO/C=C(/C(=O)OC)c1ccccc1COc1cccc(-c2cccc(OC)c2)c1 [172 (Table I)] | 4 | 0 (60-100% of disease on untreated plants) | 4 | 4 | 4 | 4 | 4
4 | CO/C=C(/C(=O)OC)c1ccccc1COc1cccc(O)c1 [171 (Table I)] | 3 (trace −5% of disease on untreated plants) | 0 (60-100% of disease on untreated plants) | 3 (trace −5% of disease on untreated plants) | 3 (trace −5% of disease on untreated plants) | 4 | 4 | 1 (26-59% of disease on untreated plants)
5 | CO/C=C(/C(=O)OC)c1ccccc1COc1cccc(Oc2cccc(Br)c2)c1 [183 (Table I)] | 4 | 3 (trace −5% of disease on untreated plants) | 4 | 0 (60-100% of disease on untreated plants) | 4 | 4 | 4
6 | CO/C=C(/C(=O)OC)c1ccccc1COc1cccc(I)c1 [25 (Table I)] | 4 | 2 (6-25% of disease on untreated plants) | 3 (trace −5% of disease on untreated plants) | 4 | 4 | 4 | 4
7 | CO/C=C(/C(=O)OC)c1ccccc1COc1cccc(Oc2ccccc2)c1 [165 (Table I)] | 0 (60-100% of disease on untreated plants) | 4 | 4 | 4 | 0 (60-100% of disease on untreated plants) | 4 | 4
8 | CO/C=C(/C(=O)OC)c1ccccc1COc1ccc(F)cc1 [156 (Table I)] | 4 | 0 (60-100% of disease on untreated plants) | 4 | 4 | 4 | 4 | 4
9 | CO/C=C(/C(=O)OC)c1ccccc1COc1cccc(Cl)c1Cl [163 (Table I)] | 4 | 2 (6-25% of disease on untreated plants) | 4 | 4 | 4 | 4 | 4
10 | CO/C=C(/C(=O)OC)c1ccccc1COc1cccc(OCc2ccccc2)c1 [184 (Table I)] | 4 | 3 (trace −5% of disease on untreated plants) | 4 | 4 | 4 | 4 | 4
